Some test systems named below: HOP-62; HCT-15; T47D; SNB-75; DU-145; HT-29; IGROV-1; NCI-H226; OVCAR-4; HCC 2998; A498; MDA-MB-231; TK-10; A549; SK-MEL-5; 786-0; ACHN; SK-OV-3; COLO 205; HL-60.
Holding throughout (assay): growth of human tumour cells (NCI), 48 h

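Where inhibition never reached the appropriate level, the endpoint shown equals the highest concentration tested. Otherwise, values were interpolated linearly from a five-concentration, 48-hour dose response in 96-well plates. Abbreviation: GI50, concentration required for 50% inhibition of growth.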 Calls of active or inactive are those of the source. Rule as the data show it: active = GI50 up to about 1.1 µM and inactive = higher.

As to `NC(=O)NC(CC(=O)O)C(=O)O` (stereo not given), the GI50 in the assay on HOP-62 was > 100 µM (inactive); in the assay with HCT-15, above 100 µM; in the assay with T47D, > 100 µM (inactive); in the assay with SNB-75 it was > 100 µM (inactive); in the assay with DU-145, > 100 µM (inactive); in the assay on HT-29 it was > 100 µM (inactive). The GI50 in the assay on IGROV-1, in the assay with NCI-H226, in the assay with OVCAR-4, in the assay on HCC 2998, in the assay with A498 and in the assay on MDA-MB-231 was > 100 µM (inactive) in each case. Also, the GI50 in the assay on TK-10, in the assay with A549, with SK-MEL-5, in the assay with 786-0 and in the assay with ACHN was > 100 µM (inactive) each time.

Turning to `COc1ccc(OC)c(-c2nc(O)c3ccccc3n2)c1`, the GI50 in the assay with HOP-62 was > 100 µM (inactive); in the assay on HCT-15, above 100 µM; in the assay on T47D it was 25.6 µM (inactive); with SNB-75, > 100 µM (inactive); in the assay on DU-145, > 100 µM (inactive); in the assay on HT-29, > 100 µM (inactive). Also, the GI50 in the assay on IGROV-1, in the assay with NCI-H226, with OVCAR-4, in the assay on HCC 2998, in the assay on SK-OV-3 and in the assay on A498 was > 100 µM (inactive) throughout. Besides, the GI50 in the assay with MDA-MB-231 was > 100 µM (inactive); in the assay with A549, > 100 µM (inactive); in the assay with COLO 205, > 100 µM (inactive); with SK-MEL-5, 74 µM (inactive); in the assay on 786-0, > 100 µM (inactive); with ACHN, > 100 µM (inactive).

For `CC(C)(N)CO[C@H]1C[C@H]2CC[C@@]1(C)C2(C)C`, the GI50 was 20 µM (inactive) in the assay with HOP-62; 19.8 µM with HCT-15; 16 µM (inactive) in the assay on T47D; 14.2 µM (inactive) in the assay with SNB-75; 25.9 µM (inactive) in the assay with DU-145; 12.4 µM (inactive) in the assay with HT-29. The GI50 was 39.2 µM (inactive) with IGROV-1; 24.7 µM (inactive) in the assay on NCI-H226; 23.1 µM (inactive) in the assay with OVCAR-4; 2.11 µM (inactive) with HCC 2998; 27.8 µM (inactive) with SK-OV-3; 27.2 µM (inactive) in the assay on A498. In addition, the GI50 in the assay on MDA-MB-231 is 17.8 µM (inactive); in the assay on TK-10, 20 µM (inactive); in the assay with A549, 38.5 µM (inactive); in the assay with COLO 205, 16.1 µM (inactive); with SK-MEL-5 it was 18.2 µM (inactive); with 786-0, 16.2 µM (inactive). Also, the GI50 in the assay on ACHN was 34.9 µM (inactive).

As for `CC1=NN(c2nc(N)nc(/C(C#N)=C\c3csc([N+](=O)[O-])c3)n2)C(C)(C)C1`, the GI50 was 26.6 µM (inactive) with HOP-62; 5.22 µM (inactive) in the assay on HL-60; 81.3 µM in the assay on HCT-15; 23.7 µM (inactive) in the assay with T47D; 33.4 µM (inactive) in the assay with DU-145; 37.3 µM (inactive) with HT-29. The GI50 is 49.3 µM (inactive) with IGROV-1; 25.8 µM (inactive) in the assay with NCI-H226; 21.9 µM (inactive) in the assay on OVCAR-4; 31.7 µM (inactive) in the assay on HCC 2998; 42.2 µM (inactive) in the assay on SK-OV-3; > 100 µM (inactive) in the assay on A498. The GI50 is 26.9 µM (inactive) with MDA-MB-231; 34.2 µM (inactive) in the assay with TK-10; 30.5 µM (inactive) with SK-MEL-5; 17.6 µM (inactive) in the assay with 786-0; 35 µM (inactive) in the assay with ACHN.

For `Cc1c(-c2ccccc2)oc(=O)c2ccccc12`, the GI50 in the assay with HOP-62 was 22.1 µM (inactive); in the assay with HCT-15, 19.8 µM; in the assay on T47D, 30.5 µM (inactive); in the assay with SNB-75, 12.4 µM (inactive); in the assay on DU-145, 37.7 µM (inactive); with HT-29, 15.5 µM (inactive). In addition, the GI50 with IGROV-1 was 20.2 µM (inactive); with NCI-H226 it was 17.5 µM (inactive); in the assay with OVCAR-4, 17.5 µM (inactive); in the assay with HCC 2998 it was 18.2 µM (inactive); in the assay with SK-OV-3, 22.8 µM (inactive); with A498, > 10 µM (inactive). Also, the GI50 in the assay with MDA-MB-231 was 16.7 µM (inactive); in the assay on TK-10 it was 23.6 µM (inactive); in the assay on A549, 25 µM (inactive); in the assay with COLO 205, 16 µM (inactive); in the assay with SK-MEL-5, 18.5 µM (inactive); in the assay with 786-0, 24.2 µM (inactive). Moreover, the GI50 in the assay on ACHN is 26.2 µM (inactive).

In the case of `Cc1nnc2sc(-c3ccc(-c4ccccc4Cl)o3)nn12`, the GI50 is > 100 µM (inactive) in the assay on HOP-62; 19.8 µM (inactive) in the assay on HL-60; 24.9 µM in the assay on HCT-15; 20.9 µM (inactive) with T47D; 36.6 µM (inactive) with DU-145; 34.4 µM (inactive) with HT-29. The GI50 in the assay with IGROV-1 was 40.6 µM (inactive); in the assay with NCI-H226 it was 20.8 µM (inactive); in the assay on OVCAR-4, 31.8 µM (inactive); with HCC 2998 it was 21.8 µM (inactive); in the assay on SK-OV-3, 57.9 µM (inactive); with A498, 37.2 µM (inactive). Also, the GI50 in the assay on MDA-MB-231 is 53.2 µM (inactive); in the assay on TK-10, 45.1 µM (inactive); with A549, 34.8 µM (inactive); in the assay on COLO 205, 38.5 µM (inactive); with SK-MEL-5 it was 20.9 µM (inactive); in the assay with 786-0, 26.9 µM (inactive). Also, the GI50 with ACHN was 48.4 µM (inactive).

On to `Cc1ccc(I)cc1N=C=S`, for which the GI50 in the assay on HOP-62 is 26.1 µM (inactive); with HL-60, 21.6 µM (inactive); with HCT-15, 17.8 µM; with T47D, 16.1 µM (inactive); in the assay with SNB-75 it was 21.2 µM (inactive); in the assay on DU-145, 28.3 µM (inactive). In addition, the GI50 with HT-29 is 23.5 µM (inactive); with IGROV-1, 28.8 µM (inactive); with NCI-H226, 18.3 µM (inactive); in the assay with OVCAR-4, 26.9 µM (inactive); in the assay with SK-OV-3, 37.3 µM (inactive); in the assay with A498 it was 21.2 µM (inactive). The GI50 is 28.2 µM (inactive) in the assay with MDA-MB-231; 36 µM (inactive) in the assay with TK-10; 28.6 µM (inactive) in the assay on A549; 18.2 µM (inactive) with COLO 205; 16.5 µM (inactive) in the assay with SK-MEL-5; 23.6 µM (inactive) in the assay with 786-0. Further, the GI50 in the assay with ACHN was 22.8 µM (inactive).

Regarding `C=CCCCCCCCCCOC1C=CC(OC(C)=O)C(COC(C)=O)O1` (stereo not given), the GI50 is 83.8 µM (inactive) with HOP-62; 24.2 µM (inactive) with HL-60; 36.6 µM with HCT-15; 77.3 µM (inactive) in the assay with T47D; > 100 µM (inactive) in the assay with DU-145; 21.4 µM (inactive) in the assay with HT-29. The GI50 in the assay with IGROV-1 was 27 µM (inactive); in the assay on NCI-H226 it was > 100 µM (inactive); in the assay on OVCAR-4 it was 45.8 µM (inactive); in the assay on HCC 2998 it was 39.8 µM (inactive); in the assay with SK-OV-3 it was > 100 µM (inactive); in the assay on A498, > 100 µM (inactive). For the same compound, the GI50 with MDA-MB-231 was > 100 µM (inactive); in the assay with TK-10 it was 44.3 µM (inactive); in the assay on A549, 55.7 µM (inactive); in the assay with COLO 205, 51.6 µM (inactive); in the assay on SK-MEL-5 it was 31.6 µM (inactive); in the assay on 786-0, 67.8 µM (inactive). In addition, the GI50 with ACHN was 65.5 µM (inactive).

Consider `Cc1ccc2c(=O)c(-c3n[nH]c(=S)s3)c[nH]c2n1`, for which the GI50 in the assay on HOP-62 is > 100 µM (inactive); in the assay with HL-60 it was > 100 µM (inactive); in the assay with HCT-15 it was above 100 µM; in the assay with T47D it was > 100 µM (inactive); in the assay with DU-145, > 100 µM (inactive); in the assay with HT-29, > 100 µM (inactive). Moreover, the GI50 in the assay on IGROV-1, with NCI-H226, in the assay on OVCAR-4, in the assay on A498, in the assay on MDA-MB-231 and with TK-10 was > 100 µM (inactive) each time. Moreover, the GI50 in the assay with A549, in the assay with COLO 205, with SK-MEL-5, with 786-0 and in the assay on ACHN was > 100 µM (inactive) in each case.

Consider `O=[N+]([O-])c1ccc2c3c1[C@H]1O[C@H]1c1cccc(c1-3)[C@@H]1O[C@H]21`, for which the GI50 was 2.9 µM (inactive) in the assay on HOP-62; 3.15 µM (inactive) with HL-60; 1.71 µM in the assay on HCT-15; 2.08 µM (inactive) in the assay on T47D; 1.97 µM (inactive) with SNB-75; 2.33 µM (inactive) in the assay on DU-145. Besides, the GI50 in the assay on HT-29 is 2.01 µM (inactive); in the assay with NCI-H226, 45.9 µM (inactive); with OVCAR-4, 2.12 µM (inactive); with SK-OV-3 it was 4.22 µM (inactive); in the assay on A498 it was 2.31 µM (inactive); in the assay with MDA-MB-231, 2.01 µM (inactive). Also, the GI50 in the assay with TK-10 is 2.96 µM (inactive); in the assay on A549, 3.2 µM (inactive); in the assay with COLO 205, 2.05 µM (inactive); with SK-MEL-5 it was 3.02 µM (inactive); in the assay on 786-0 it was 1.96 µM (inactive); in the assay with ACHN it was 2.22 µM (inactive).

On to `CC(C)(C)[Si](C)(C)OCCC1CC2(S(=O)(=O)C3=CC=C=C=C3)ON1CC2S(=O)(=O)c1ccccc1` (stereo not given), for which the GI50 with HOP-62, in the assay with T47D, with SNB-75, with DU-145, with HT-29 and with IGROV-1 was > 10 µM (inactive) in each case. In addition, the GI50 in the assay with NCI-H226 is > 10 µM (inactive); in the assay on OVCAR-4, > 10 µM (inactive); in the assay on HCC 2998 it was > 10 µM (inactive); with SK-OV-3, > 100 µM (inactive); with A498, > 10 µM (inactive); in the assay with MDA-MB-231 it was > 10 µM (inactive). For the same compound, the GI50 in the assay on TK-10, in the assay on A549, with COLO 205, with SK-MEL-5, in the assay on 786-0 and with ACHN was > 10 µM (inactive) throughout.
